Experiment: Viscosity of paste comprising BCG-CWS, co-axial bicylindrical viscometer
Format: physicochemical
Conditions: unit not given
Method: “Viscosity” as used herein means a value determined by dynamic viscoelasticity measurement, for example, values obtained using a co-axial bicylindrical viscometer. In the present invention, viscosity may be measured using a co-axial bicylindrical viscometer manufactured by Rheology Co., Ltd (Model MR-300, Soliquid meter) at 25° C. under nitrogen atmosphere. One poise represents 0.1 Pa·s (pascal.sec).
The viscosity of the paste was measured at 25° C. using a co-axial bicylindrical viscometer manufactured by Rheology Co., Ltd (Model MR-300, Soliquid meter). The viscosity was measured to be 0.545 poise.

CC(C)CCCC(C)CCCC(C)CCCCC(C)CCCC(C)CCCC(C)C (stereo not shown) [squalane]
viscosity: 0.236
